This passage reports GI50 and TGI results from PubChem BioAssay (NCI).

Test systems include K-562 leukemia; SN12C renal; RPMI-8226 leukemia; SF-268 CNS; TK-10 renal; COLO 205 colon; UACC-62 melanoma; SNB-19 CNS; OVCAR-5 ovarian; HT29 colon.
What all share (test): NCI-60 cell line screen, 48 h

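Five compound concentrations were applied to cells in 96-well plates for 48 hours; endpoints were derived by simple linear interpolation of the resulting dose-response curve. Here, GI50 denotes the concentration required for 50% inhibition of growth. Definition used: TGI = concentration required for complete inhibition of growth.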 Bounds are passed on as bounds.

Turning to `O=C(Oc1ccccc1)C(Br)C(Br)c1ccccc1` (configuration not stated), the GI50 in the assay with K-562 leukemia is 1.95 µM; in the assay with SN12C renal, 1.88 µM; with RPMI-8226 leukemia, 2.75 µM; in the assay with SF-268 CNS, 4.15 µM; in the assay on TK-10 renal, 2.19 µM; in the assay on COLO 205 colon it was 1.98 µM. Besides, the results for the GI50 with UACC-62 melanoma, with SNB-19 CNS and with OVCAR-5 ovarian were 5.51 µM, 11.9 µM and 7 µM, respectively. Further, the TGI with K-562 leukemia was found to be 9 µM; in the assay with SN12C renal, 4.5 µM; in the assay on RPMI-8226 leukemia, 7.9 µM; in the assay with SF-268 CNS, 15.2 µM; in the assay with TK-10 renal, 4.95 µM; in the assay on COLO 205 colon, 3.83 µM. The TGI was determined as 18.2 µM in the assay with UACC-62 melanoma, 24.6 µM with SNB-19 CNS and 20.8 µM with OVCAR-5 ovarian.
On to `C=C1C(=O)O[C@H]2[C@H]1CC/C(COC(=O)NCCc1cccc(OC)c1)=C\CC[C@@]1(C)O[C@@H]21`, for which the GI50 in the assay with K-562 leukemia is 0.613 µM; in the assay on RPMI-8226 leukemia it was 0.917 µM; in the assay with SF-268 CNS, 1.78 µM; with TK-10 renal it was 1.61 µM; in the assay on HT29 colon, 1.14 µM; in the assay with COLO 205 colon, 1.55 µM. Further, the values for the GI50 with SNB-19 CNS and in the assay with OVCAR-5 ovarian were 1.43 µM and 2.25 µM, respectively. Besides, the TGI stood at 6.25 µM in the assay on K-562 leukemia; 4.34 µM in the assay with RPMI-8226 leukemia; 4.91 µM in the assay with SF-268 CNS; 3.25 µM in the assay on TK-10 renal; 2.88 µM in the assay on HT29 colon; 3.28 µM in the assay with COLO 205 colon. Moreover, the TGI with SNB-19 CNS turned out to be 3.13 µM; with OVCAR-5 ovarian, 6.05 µM.
For `COc1cc(NC(C)CCCNC(C)C)c2ncccc2c1OC` (configuration not stated), the GI50 in the assay with K-562 leukemia is 32.8 µM; in the assay with SN12C renal, greater than 100 µM; in the assay with SF-268 CNS it was greater than 100 µM; with COLO 205 colon, 14 µM; in the assay on UACC-62 melanoma it was greater than 100 µM; in the assay on SNB-19 CNS it was greater than 100 µM. Moreover, the GI50 in the assay on OVCAR-5 ovarian was greater than 100 µM. In addition, the TGI in the assay on K-562 leukemia was greater than 100 µM; in the assay on SN12C renal it was greater than 100 µM; with SF-268 CNS, greater than 100 µM; in the assay on COLO 205 colon, 39.1 µM; in the assay on UACC-62 melanoma, greater than 100 µM; in the assay with SNB-19 CNS, greater than 100 µM. This compound also showed a TGI in the assay on OVCAR-5 ovarian greater than 100 µM.
`CCC[CH2][Sn]([CH2]CCC)([CH2]CCC)[O]C(=O)C(OC)c1ccccc1` (configuration not stated): the GI50 in the assay with SN12C renal was 0.117 µM; with RPMI-8226 leukemia it was 0.0206 µM; in the assay on SF-268 CNS it was 0.112 µM; in the assay on TK-10 renal, 0.263 µM; in the assay on HT29 colon it was 0.0507 µM; in the assay with COLO 205 colon it was 0.134 µM. Moreover, the results for the GI50 in the assay on UACC-62 melanoma, with SNB-19 CNS and in the assay with OVCAR-5 ovarian were 0.0913 µM, 0.156 µM and 0.0371 µM, respectively. Moreover, the TGI with SN12C renal was 0.24 µM; in the assay with RPMI-8226 leukemia, 0.306 µM; with SF-268 CNS, 0.327 µM; in the assay on TK-10 renal, 0.984 µM; in the assay on HT29 colon it was 0.168 µM; in the assay with COLO 205 colon it was 0.264 µM. In addition, the TGI in the assay with UACC-62 melanoma is 0.215 µM; in the assay with SNB-19 CNS, 0.301 µM; in the assay with OVCAR-5 ovarian, 0.183 µM.
On to `COc1ccc(-c2nc(N)c(C#N)c3c2CCOc2c-3ccc3ccccc23)cc1`, for which the GI50 with K-562 leukemia was greater than 100 µM; in the assay with SN12C renal, 21 µM; in the assay with SF-268 CNS, 11.1 µM; in the assay on TK-10 renal, 21.5 µM; in the assay with HT29 colon it was 52.7 µM; in the assay with COLO 205 colon it was 7.61 µM. Besides, the GI50 in the assay on SNB-19 CNS is 24.2 µM; in the assay on OVCAR-5 ovarian, 62.2 µM. In addition, the TGI was greater than 100 µM with K-562 leukemia; 76.5 µM with SN12C renal; 39.8 µM in the assay on SF-268 CNS; 53.2 µM in the assay on TK-10 renal; greater than 100 µM with HT29 colon; greater than 100 µM in the assay on COLO 205 colon. The values for the TGI with SNB-19 CNS and with OVCAR-5 ovarian were 91 µM and greater than 100 µM, respectively.
As for `COc1cc(Nc2ncnc(Nc3ccc4c(n3)NC(=O)C(C)(C)O4)n2)cc(OC)c1OC`, the GI50 with K-562 leukemia was 3.55 µM; in the assay with SN12C renal, 0.411 µM; with SF-268 CNS, 0.544 µM; with TK-10 renal, 0.457 µM; with HT29 colon, 0.803 µM; with COLO 205 colon it was 0.829 µM. In addition, the values for the GI50 in the assay with UACC-62 melanoma, with SNB-19 CNS and with OVCAR-5 ovarian were 2.36 µM, 9.78 µM and 0.602 µM, respectively. The TGI in the assay on K-562 leukemia, with SN12C renal, in the assay with SF-268 CNS, in the assay with TK-10 renal, in the assay with HT29 colon and in the assay with COLO 205 colon was greater than 100 µM in each case. Moreover, the TGI with UACC-62 melanoma, in the assay on SNB-19 CNS and with OVCAR-5 ovarian was greater than 100 µM each time.
As for `c1ccc(C2CC(c3ccc4ccccc4c3)=Nc3ccccc3S2)cc1` (configuration not stated), the TGI in the assay on K-562 leukemia was 59.3 µM; in the assay on SN12C renal, 30.4 µM; in the assay on RPMI-8226 leukemia it was greater than 100 µM; with SF-268 CNS, 31.1 µM; in the assay on TK-10 renal it was 37.8 µM; in the assay on HT29 colon it was 30.8 µM. Further, the TGI worked out at 35.2 µM in the assay with UACC-62 melanoma, 36.7 µM in the assay on SNB-19 CNS and 37.6 µM in the assay with OVCAR-5 ovarian.
For the compound `CC(C)(C)c1nc(-c2cccc(NS(=O)(=O)c3c(F)cccc3F)c2F)c(-c2ccnc(N)n2)s1`, the GI50 is 25.6 µM in the assay on K-562 leukemia; 17.7 µM with SN12C renal; 24.1 µM in the assay with RPMI-8226 leukemia; 51 µM in the assay on SF-268 CNS; 31.8 µM with TK-10 renal; less than 0.01 µM in the assay with HT29 colon. The figures for the GI50 in the assay on COLO 205 colon, with SNB-19 CNS and in the assay with OVCAR-5 ovarian were less than 0.01 µM, 71.5 µM and 12.3 µM, respectively. For the same compound, the TGI in the assay with K-562 leukemia is greater than 100 µM; in the assay with SN12C renal it was greater than 100 µM; in the assay with RPMI-8226 leukemia, 97 µM; in the assay with SF-268 CNS it was greater than 100 µM; with TK-10 renal, greater than 100 µM; in the assay on HT29 colon, greater than 100 µM. Further, the TGI with COLO 205 colon, in the assay on SNB-19 CNS and in the assay on OVCAR-5 ovarian was greater than 100 µM throughout.
